These results are taken from patent publication US7863241B2, “Compositions for treatment and prevention of pulmonary conditions” (The Scripps Research Institute, priority 2002, dated 2011).

Assay [1] deals with rabbits injured with LPS and PMA. Briefly: LPS/PMA lung injury in rabbits treated with anti-oxidant catalase. Type of assay: in vivo, rabbit. To be noted: for Albumin In BALF / BALF RBCs / Compliance / PaCO2 6 hr / PaO2 4.5 hr / PaO2 6 hr / Wet:Dry weight / Gross Pathology / Histologic Pathology: average ± SEM; for Wet:Dry weight: lung; for Gross Pathology / Histologic Pathology: on a scale of 0–4. Here is the method: Procedures employed were similar to those used in the foregoing Examples. Lung injury is induced in rabbits (1.0-1.5 kg) by bronchoalveolar lavage (BAL) using 5 μg/ml bacterial LPS in saline at a dosage of 20 ml/kg. At 2.5 hrs after LPS administration, the rabbits received 20 ml/kg phorbol myristate acetate (PMA) by bronchoalveolar lavage. At 2.5 hours after LPS administration, animals in group 1 received the anti-oxidant catalase intratracheally. Animals in group 2 received catalase intratracheally and intravenously. Animals in group 3 received catalase intratracheally and intravenously, as well as 5mg/ml Model Surfactant Mixture (KL4) intratracheally. Animals in group 4 received no further treatment (control). The rabbits were ventilated at PIP […] PEEP 3 cm H2O pressure. The study was terminated at 6 hrs. Values in Tables 6 and 7 are averages+standard error of the mean (SEM).

The next assay relates to Phospholipase A2 (PLA2). To be noted: 30 min incubation, lavage fluid of rabbit 6015, increasing amounts of inhibitor.
Assay [2] has as its target T1, human neutrophil elastase (HNE) (Homo sapiens, UniProt P08246).
T1 sequence (P08246 30-267): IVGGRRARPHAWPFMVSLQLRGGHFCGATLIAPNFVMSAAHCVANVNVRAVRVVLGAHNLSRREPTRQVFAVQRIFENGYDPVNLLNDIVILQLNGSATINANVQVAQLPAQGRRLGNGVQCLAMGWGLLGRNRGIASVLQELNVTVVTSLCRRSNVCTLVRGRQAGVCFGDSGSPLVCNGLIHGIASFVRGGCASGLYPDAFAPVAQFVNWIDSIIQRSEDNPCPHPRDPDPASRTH
As to the kind of experiment: Inhibition of HNE by terminal lavage fluid of treated rabbits. Type of assay: biochemical. To be noted: 0.02 μg HNE with 50 μl terminal lavage fluid of one representative rabbit per group. Here is the method:
The presence of elastase inhibitor(s) (or the residual activity) in the terminal lavage fluids prepared as described in Example 8) was tested. 0.02 μg of human neutrophil elastase (HNE), was incubated with 50 μl of terminal lavage fluid of one representative rabbit from each experimental group (Groups 1-5). HNE activities are assayed using the colorimetric assay as described in Example 1. The assay results are presented graphically in FIG. 9.

The test system of assay [3] is rabbits injured with LPS and PMA. Briefly: LPS/PMA-induced pulmonary injury in rabbits (ARDS Rabbit Model), terminal lavage analysis. The class given is in vivo. How it is done:
The effects of Model surfactant mixture, the serine elastase inhibitor, and the combination of the two on pulmonary inflammation were evaluated on an ARDS Rabbit Model. These experiments are described in details in Examples 8 to 12. Twenty (20) rabbits were divided into five groups for this study. Pulmonary inflammation was induced in Groups 1-4 rabbits from stimulation by lavaging with bacterial lipopolysaccharide (LPS) and, 3 hours later, with phorbol myristate acetate (PMA). Additionally, as treatment, Group 2 rabbits received Model surfactant mixture, Group 3 rabbits received the serine elastase inhibitor, and Group 4 animals received both Model surfactant mixture and the serine elastase inhibitor. Group 5 rabbits were normal rabbits and were used as control. The animals were sacrificed at six (6) hr., the right lower lobe was lavaged three times and the lavage fluids were pooled (terminal lavage) for each animal. The level of injury and the effect of the treatments were measured by the amount of basement membrane protein fragments and red blood cells found in terminal lavage fluids.
LPS: Minn (List Biological). 5 mg vial. Animals were treated by quantitative lavage leaving 120 μg/kg in 8 ml/kg.
PMA: (Sigma) diluted in saline or Model surfactant mixture to 5 μg/mL Used 20 ml/kg/rabbit for lavage, leaving 20% of the dosage in the animal.
Model surfactant mixture: (Discovery Labs) 10 mg/ml. Use 20 ml/kg/rabbit for lavage, leaving 20% of the dosage in the animal.
Serine Elastase Inhibitor. Elafin (Astra-Zeneca) 3 mg/ml stock, dialyzed against saline to remove azide: 1.3 ml/kg Elafin was administered intravenously at 1.5 hr., 0.33 ml/kg was administered intratracheally (×2 sides) at 3 hr., and 0.66 ml/kg was administered intravenously at 4.5 hr.
Twenty NZW rabbits are divided into five (5) treatment groups with four (4) animals each. Lung injury is induced by two lavages with LPS in saline and one PMA treatment administered by lavage at 3 hr. Serine elastase inhibitor and Model surfactant mixture were separately and jointly tested to ascertain the degree to which these factors could reduce symptoms of inflammation. Treatments received by the different groups are as follows:
Group 1: The animals received two lavages with LPS in saline and one PMA treatment administered by lavage at 3 hr. A dosage of ^125I-BSA was given to the animals intravenously at 5.5 hr. and the animals were sacrificed at 6 hr.
Group 2: The animals received two lavages with LPS in saline, one PMA and Model surfactant mixture treatment administered by lavage at 3 hr. A dosage of ^125I-BSA was given to the animals intravenously at 5.5 hr. and the animals were sacrificed at 6 hr.
Group 3: The animals received two lavages with LPS in saline and one PMA treatment administered by lavage at 3 hr. […]

Assay [4] has as its target T1, human neutrophil elastase (HNE). Briefly: Colorimetric assay of human neutrophil elastase inhibition. Type of assay: biochemical. How it is done: A peptide having the following sequence MeO-Suc-Ala-Ala-Pro-Val-pNA (SEQ ID NO:24) was used as an elastase substrate. One hundred (100) μL of a 0.425 mM solution of the SEQ ID NO:24 peptide substrate was placed in a series of microtiter plate wells. Varying amounts of human neutrophil elastase (HNE) were added to the microtiter plate wells. The optical density at 410 nm (OD410) was used to measure elastase activity, and the optical densities observed were plotted versus the amounts of HNE added to generate a standard curve.
To test the ability of a serine elastase inhibitor to inhibit human neutrophil elastase (HNE), a standard amount of 0.125 μg HNE was mixed with increasing amounts of a serine elastase inhibitor before addition of the elastase substrate described in Example 3.
0.02 μg of human neutrophil elastase (HNE), was incubated with 2 mg/ml of Model surfactant mixture, 100 μg/ml of a serine elastase inhibitor, or both Model surfactant mixture and the serine elastase inhibitor together. The HNE activity remaining was assayed using the calorimetric assay described above. The result is represented graphically in FIG. 8.

Assay [5] concerns elastase activity in rabbit BAL fluids. Briefly: Elastase activity in rabbit BAL fluids after addition of serine elastase inhibitor. Type of assay: biochemical. Conditions: 100 μg/ml inhibitor added to BAL fluids of six anti-BSA/BSA treated rabbits. How it is done: Six rabbits were treated with 3 mg anti-BSA/kg (rabbits 6098 and 6099) or 5 mg anti-BSA/kg (rabbits 6100-6103) was instilled intratracheally and 10 mg of BSA was given intravenously (6098-6101) to induce respiratory distress. Bronchoalveolar lavage (BAL) fluids were taken from the lungs of these rabbits six hours after the treatment and a colorimetric assay of elastase activity was performed on these BAL fluids. Elastase activity is expressed as the concentration of HNE that gives a corresponding OD at 410 nm. Additionally, the same assay was performed after the addition of 100 μg/ml of a serine elastase inhibitor to the BAL fluids.

Setting [6] is: catalase IT & IV (combination: plus 5mg/ml Model Surfactant Mixture IT).

Entries after “also recorded” stand apart in the source; their conditions may differ.

Protocol for Phospholipase A2 (PLA2): Terminal lavage fluid was collected from rabbits experiencing pulmonary injury initiated by the intratracheal administration of partially purified antibodies directed against BSA (anti-BSA antibodies). Palmitoyl, oleoyl phosphotidylglycerol (POPG, Avanti Polar Lipids) was added to the lavage fluid as a substrate for detecting PLA2 activity in the lavage fluid. Prior to addition of the POPG substrate, the mixture was adjusted to a final concentration of 10 mM CaCl2, 100 mM KCl and 25 mM Tris-Cl, pH 8.5. This mixture was incubated at 37° C. Aliquots were removed over time and the amount of oleic acid released from the POPG substrate was measured by high pressure liquid chromatography (HPLC). The amount of oleic acid released was quantified from the height of the peak at 4.59 min elution time from a C-18 HPLC column, as measured by the absorbance at 207 nm.
BSA and anti-BSA antibodies were administered to rabbit 6015 and lavage fluids were obtained from rabbit 6015 as described in the previous Example. […] This mixture was incubated for 15 min. at 37° C. before addition of POPG substrate. PLA2 activity was measured using the height of the eluted oleic acid HPLC peak, as described in previous Examples.

In the case of catalase, the “lung function (overall)” value in assay [1] (LPS/PMA injured rabbits, study terminated at 6 hrs) is on record as “significantly improve lung function”. Also, in assay [1] (setting [6]), the “Albumin In BALF” value is recorded as 0.50 ± 0.11, the “BALF RBCs” value is 2.3 ± 1.2 ×10^3, the Compliance is 8.4 ± 0.3 ml at 12 cm H2O/Kg and the “PaCO2 6 hr” value is recorded as 36 ± 5. In assay [1] (setting [6]), the “PaO2 4.5 hr” value was 129 ± 19, the “PaO2 6 hr” value came to 124 ± 22, the “Wet:Dry weight” value came to 8.0 ± 0.6 and the “Gross Pathology” value amounted to 1.1 ± 0.4. Further, in assay [1] (setting [6]), the “Histologic Pathology” value worked out at 2.9 ± 0.8. Also, in assay [1] (catalase IT), the “Albumin In BALF” value amounted to 0.65 ± 0.16, the “BALF RBCs” value is on record as 6.1 ± 3.6 ×10^3, the Compliance is listed as 10.1 ± 1.8 ml at 12 cm H2O/Kg and the “PaCO2 6 hr” value was determined as 40 ± 3. Moreover, in assay [1] (catalase IT), the “PaO2 4.5 hr” value was found to be 128 ± 15, the “PaO2 6 hr” value worked out at 119 ± 15, the “Wet:Dry weight” value stood at 7.4 ± 0.4 and the “Gross Pathology” value was found to be 1.6 ± 0.6. In assay [1] (catalase IT), the “Histologic Pathology” value is recorded as 2.7 ± 0.6.
`CCc1c(CC(N)=O)c2cc(OCCCP(=O)(O)O)ccc2n1Cc1ccccc1` [LY311727]: in the assay with Phospholipase A2 (PLA2), the “PLA2 activity (release of oleic acid from POPG)” value was “decreasing amounts of PLA2 activity were observed”.
“Elafin (AQEPVKGPVSTKPGSCPIILIRCAMLNPPNRCLKDTDCPGIKKCCEGSCGMACFVPQ) [serine elastase inhibitor, Elafin (Astra-Zeneca) 3 mg/ml stock, dialyzed against saline]”: the “inhibition of HNE activity by terminal lavage fluid” value in assay [2] is “highly significant”. In addition, the “number of RBCs in terminal lavage fluid” value in assay [3] (6 hr post LPS/PMA injury) is “greater reduction in injury”. Further, the “amount of protein in terminal lavage fluid” value in assay [3] (6 hr post LPS/PMA injury, versus injured untreated group) is given as “failure of group 3, which received elastase inhibitor alone, to show a reduction in protein levels”. In addition, in assay [3] (Group 3, 6 hr post LPS/PMA injury), the “mean protein value in terminal lavage fluid, one aberrant animal excluded” value was 1.72 mg/mL. Also, in assay [3] (terminal lavage fluid, LPS/PMA injured rabbits), the “basement membrane damage (Western blot of basement membrane proteins in BAL fluid)” value is “Amelioration of the damage in the basement membrane is observed”. The HNE activity remaining result in assay [4] (0.02 μg HNE, Model surfactant mixture 2 mg/ml, serine elastase inhibitor 100 μg/ml) is on record as “Significant inhibition”. The “HNE activity (OD410) versus log of amount of inhibitor” value in assay [4] (0.125 μg HNE, increasing amounts of inhibitor, in vitro) is listed as “HNE activity is inhibited in vitro”. Also, the “Elastase activity in BAL fluids after added inhibitor” value in assay [5] is recorded as “inhibited in five out of the six BAL fluids; also recorded: In all cases, the elastase activity was inhibited”.
